Assay results as given in patent US12281149B2, “Modulators of G-protein coupled receptors” (priority 2021, dated 2025).
Read-outs that look alike come from different tables or passages of the source. *1 amine or outer side, *2 acyl side, *3 side chain or, on linkers, in order; H or OH if unused. Where a SMILES comes first, the peptide text is derived from it. Side-chain parts run from the residue outwards. [ ]: non-standard residue; d: D form. The star is where a group is joined. Isobutyryl(2-(3-CN-5-F-Ph)) = CC(C)(C(=O)*)c1cc(F)cc(C#N)c1; C20 diacid = O=C(O)CCCCCCCCCCCCCCCCCCC(=O)*; γGlu = O=C(O)[C@H](CCC(=O)[*:2])N[*:1]; NMeβAla = CN(CCC(=O)[*:2])[*:1]; X69 = CC(C)(C(=O)*)c1c(F)cccc1F; X16 = FC(F)(F)c1cccc(N*)c1; Dap = NC[C@H](N)C(=O)O; AEEA = NCCOCCOCC(=O)O; Aib = CC(C)(N)C(=O)O; CO = O=C([*:1])[*:2]; GABA = NCCCC(=O)O; βAla = NCCC(=O)O

How the values were obtained:
Format in all cases: cell-based
[1] = biological target: T1, GIP receptor (Homo sapiens, UniProt P48546); assay: HitHunter cAMP assay, GIP receptor; conditions: for Emax: read-out: Emax GIP-1R
T1 sequence (P48546 22-466): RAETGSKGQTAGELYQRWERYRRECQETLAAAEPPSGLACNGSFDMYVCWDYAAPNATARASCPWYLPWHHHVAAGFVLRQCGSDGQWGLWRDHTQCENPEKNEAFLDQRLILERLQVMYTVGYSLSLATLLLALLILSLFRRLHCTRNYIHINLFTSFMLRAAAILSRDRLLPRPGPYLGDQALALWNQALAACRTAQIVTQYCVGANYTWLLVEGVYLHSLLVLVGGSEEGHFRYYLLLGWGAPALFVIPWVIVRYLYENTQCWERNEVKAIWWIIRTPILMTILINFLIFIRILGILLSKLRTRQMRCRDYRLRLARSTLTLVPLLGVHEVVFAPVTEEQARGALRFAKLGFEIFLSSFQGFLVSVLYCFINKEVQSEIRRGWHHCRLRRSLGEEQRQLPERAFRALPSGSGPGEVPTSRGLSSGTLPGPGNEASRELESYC

[2] = biological target: T1, GIP receptor; assay: PathHunter β-arrestin assay, GIP receptor; set-up: host or cells: PathHunter CHO-K1 GIPR β-Arrestin Cell Line
[3] = biological target: T2, GLP-1 receptor (Homo sapiens, UniProt P43220); assay: PathHunter β-arrestin assay, GLP-1 receptor; set-up: host or cells: PathHunter CHO-K1 GLP1R β-Arrestin Cell Line
T2 sequence (P43220 24-463): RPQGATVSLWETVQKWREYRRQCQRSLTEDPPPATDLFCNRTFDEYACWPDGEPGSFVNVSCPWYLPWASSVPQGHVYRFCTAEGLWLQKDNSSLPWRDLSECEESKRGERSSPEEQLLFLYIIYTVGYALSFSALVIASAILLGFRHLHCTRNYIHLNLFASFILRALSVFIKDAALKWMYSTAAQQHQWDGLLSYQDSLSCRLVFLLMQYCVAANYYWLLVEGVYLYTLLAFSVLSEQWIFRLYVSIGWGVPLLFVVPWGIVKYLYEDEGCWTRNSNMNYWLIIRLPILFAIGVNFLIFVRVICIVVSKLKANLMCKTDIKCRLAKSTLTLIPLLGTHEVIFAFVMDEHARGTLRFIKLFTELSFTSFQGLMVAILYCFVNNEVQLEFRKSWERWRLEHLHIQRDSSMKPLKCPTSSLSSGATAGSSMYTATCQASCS

[4] = biological target: T2, GLP-1 receptor; assay: HitHunter cAMP assay, GLP-1 receptor; conditions: for Emax: read-out: Emax GLP-1R
[5] = CHO cells stably expressing GIP receptor, cAMP accumulation, 30 min, read-out: EC50 GIP-1R
[6] = CHO cells, cAMP, normalized to maximum signal from GIP (high) and DMSO (low)
[7] = β-arrestin-2 recruitment, PathHunter CHO-K1 GIPR β-Arrestin Cell Line, 90 min at 37° C., normalized to GIP, read-out: GIPR β Arrestin EC50
[8] = β-arrestin-2 recruitment, PathHunter CHO-K1 GLP1R β-Arrestin Cell Line, 90 min at 37° C., normalized to GLP-1, read-out: GLP-1R β Arrestin EC50
[9] = CHO cells stably expressing human GLP-1 receptor, cAMP accumulation, 30 min, read-out: EC50 GLP-1R
[10] = CHO cells, cAMP, normalized to maximum signal from GLP-1 (high) and DMSO (low)

With `CC[C@H](C)[C@H](NC(=O)[C@H](CC(C)C)NC(=O)[C@H](Cc1c[nH]c2ccccc12)NC(=O)[C@H](CCC(N)=O)NC(=O)[C@@H](NC(=O)[C@H](Cc1ccccc1)NC(=O)[C@H](C)NC(=O)[C@H](CCCCNC(=O)COCCOCCNC(=O)COCCOCCNC(=O)CC[C@H](NC(=O)CCCCCCCCCCCCCCCCCCC(=O)O)C(=O)O)NC(=O)[C@H](CCC(N)=O)NC(=O)[C@H](C)NC(=O)[C@@H](NC(=O)[C@H](CCCCN)NC(=O)[C@H](CC(=O)O)NC(=O)[C@H](CC(C)C)NC(=O)C(C)(C)NC(=O)[C@@H](NC(=O)[C@H](CO)NC(=O)[C@H](Cc1ccc(O)cc1)NC(=O)[C@H](CC(=O)O)NC(=O)[C@H](CO)NC(=O)[C@@H](NC(=O)[C@H](Cc1ccccc1)NC(=O)[C@@H](NC(=O)CNC(=O)[C@H](CCC(=O)O)NC(=O)CCNC(=O)C(C)(C)c1c(F)cccc1F)[C@@H](C)O)[C@@H](C)O)[C@@H](C)CC)[C@@H](C)CC)C(C)C)C(=O)N[C@@H](C)C(=O)NCC(=O)NCC(=O)N1CCC[C@H]1C(=O)N[C@@H](CO)C(=O)N[C@@H](CO)C(=O)NCC(=O)N[C@@H](C)C(=O)N1CCC[C@H]1C(=O)N1CCC[C@H]1C(=O)N1CCC[C@H]1C(=O)N[C@@H](CO)C(N)=O` [Compound 163] ({X69-βAla}-EGTFTSDYSI[Aib]LDKIAQK([AEEA-AEEA-γGlu-C20 diacid])AFVQWLIAGGPSSGAPPPS-NH2) the EC50 [1, 5] was 10 to 100 nM, the Emax [1, 6] was 105% and the EC50 [2, 7] was under 1000 nM. The EC50 [3, 8] was over 1000 nM, the EC50 [4, 9] was 0.1 to 1 nM and the Emax [4, 10] was 104%.

With `CC[C@H](C)[C@H](NC(=O)[C@H](CO)NC(=O)[C@H](Cc1ccc(O)cc1)NC(=O)[C@H](CC(=O)O)NC(=O)[C@H](CO)NC(=O)[C@@H](NC(=O)[C@H](Cc1ccccc1)NC(=O)[C@@H](NC(=O)CNC(=O)[C@H](CCC(=O)O)NC(=O)CCNC(=O)C1(n2cccn2)CCOC(C)C1)[C@@H](C)O)[C@@H](C)O)C(=O)N[C@@H](Cc1ccc(O)cc1)C(=O)N[C@@H](CC(C)C)C(=O)N[C@@H](CC(=O)O)C(=O)N[C@@H](CCCCN)C(=O)N[C@@H](CCC(N)=O)C(=O)N[C@@H](C)C(=O)N[C@@H](C)C(=O)NC(C)(C)C(=O)N[C@@H](CCC(=O)O)C(=O)N[C@@H](Cc1ccccc1)C(=O)N[C@H](C(=O)N[C@@H](CC(N)=O)C(=O)N[C@@H](Cc1c[nH]c2ccccc12)C(=O)N[C@@H](CC(C)C)C(=O)N[C@@H](CC(C)C)C(=O)N[C@@H](C)C(=O)NCC(=O)NCC(=O)N1CCC[C@H]1C(=O)N[C@@H](CO)C(=O)N[C@@H](CO)C(=O)NCC(=O)N[C@@H](C)C(=O)N1CCC[C@H]1C(=O)N1CCC[C@H]1C(=O)N1CCC[C@H]1C(=O)N[C@@H](CO)C(=O)N[C@@H](CCCCNC(=O)COCCOCCNC(=O)COCCOCCNC(=O)CC[C@H](NC(=O)CCCCCCCCCCCCCCCCCCC(=O)O)C(=O)O)C(N)=O)C(C)C` (stereo partly drawn) [Compound 101] the EC50 [1, 5] was 10 to 100 nM, the Emax [1, 6] was 96% and the EC50 [2, 7] was over 1000 nM. For the same molecule, the EC50 [3, 8] was over 1000 nM, the EC50 [4, 9] was 1 to 10 nM and the Emax [4, 10] was 93%.

In the case of `CC[C@H](C)[C@H](NC(=O)[C@H](CC(C)C)NC(=O)[C@H](Cc1c[nH]c2ccccc12)NC(=O)[C@H](CCC(N)=O)NC(=O)[C@@H](NC(=O)[C@H](Cc1ccccc1)NC(=O)[C@H](C)NC(=O)[C@H](CCCCNC(=O)COCCOCCNC(=O)COCCOCCNC(=O)CC[C@H](NC(=O)CCCCCCCCCCCCCCCCCCC(=O)O)C(=O)O)NC(=O)[C@H](CCC(N)=O)NC(=O)[C@H](C)NC(=O)[C@@H](NC(=O)[C@H](CCCCN)NC(=O)[C@H](CC(=O)O)NC(=O)[C@H](CC(C)C)NC(=O)C(C)(C)NC(=O)[C@@H](NC(=O)[C@H](CO)NC(=O)[C@H](Cc1ccc(O)cc1)NC(=O)[C@H](CC(=O)O)NC(=O)[C@H](CO)NC(=O)[C@@H](NC(=O)[C@H](Cc1ccccc1)NC(=O)[C@@H](NC(=O)CNC(=O)[C@H](CCC(=O)O)NC(=O)[C@@H](N)CNC(=O)C(C)(C)c1cc(F)cc(C#N)c1)[C@@H](C)O)[C@@H](C)O)[C@@H](C)CC)[C@@H](C)CC)C(C)C)C(=O)N[C@@H](C)C(=O)NCC(=O)NCC(=O)N1CCC[C@H]1C(=O)N[C@@H](CO)C(=O)N[C@@H](CO)C(=O)NCC(=O)N[C@@H](C)C(=O)N1CCC[C@H]1C(=O)N1CCC[C@H]1C(=O)N1CCC[C@H]1C(=O)N[C@@H](CO)C(N)=O` [Compound 191] (H-[Dap](Isobutyryl(2-(3-CN-5-F-Ph)))EGTFTSDYSI[Aib]LDKIAQK([AEEA-AEEA-γGlu-C20 diacid])AFVQWLIAGGPSSGAPPPS-NH2), the EC50 [1, 5] is reported as 10 to 100 nM, the Emax [1, 6] is reported as 98% and the EC50 [2, 7] is reported as over 1000 nM. For the same molecule, the EC50 [3, 8] was over 1000 nM, the EC50 [4, 9] was 1 to 10 nM and the Emax [4, 10] was 92%.

`CC[C@H](C)[C@H](NC(=O)[C@H](CC(C)C)NC(=O)[C@H](Cc1c[nH]c2ccccc12)NC(=O)[C@H](CCC(N)=O)NC(=O)[C@@H](NC(=O)[C@H](Cc1ccccc1)NC(=O)[C@H](C)NC(=O)[C@H](CCCCNC(=O)COCCOCCNC(=O)COCCOCCNC(=O)CC[C@H](NC(=O)CCCCCCCCCCCCCCCCCCC(=O)O)C(=O)O)NC(=O)[C@H](CCC(N)=O)NC(=O)[C@H](C)NC(=O)[C@@H](NC(=O)[C@H](CCCCN)NC(=O)[C@H](CC(=O)O)NC(=O)[C@H](CC(C)C)NC(=O)C(C)(C)NC(=O)[C@@H](NC(=O)[C@H](CO)NC(=O)[C@H](Cc1ccc(O)cc1)NC(=O)[C@H](CC(=O)O)NC(=O)[C@H](CO)NC(=O)[C@@H](NC(=O)[C@H](Cc1ccccc1)NC(=O)[C@@H](NC(=O)CNC(=O)[C@H](CCC(=O)O)NC(=O)CCCNC(=O)CNC(=O)Nc1cccc(C(F)(F)F)c1)[C@@H](C)O)[C@@H](C)O)[C@@H](C)CC)[C@@H](C)CC)C(C)C)C(=O)N[C@@H](C)C(=O)NCC(=O)NCC(=O)N1CCC[C@H]1C(=O)N[C@@H](CO)C(=O)N[C@@H](CO)C(=O)NCC(=O)N[C@@H](C)C(=O)N1CCC[C@H]1C(=O)N1CCC[C@H]1C(=O)N1CCC[C@H]1C(=O)N[C@@H](CO)C(N)=O` [Compound 263] ({X16-CO}-G[GABA]EGTFTSDYSI[Aib]LDKIAQK([AEEA-AEEA-γGlu-C20 diacid])AFVQWLIAGGPSSGAPPPS-NH2) gave an EC50 [1] of 1 to 10 nM, an Emax ([1]; CHO) of 104% and an EC50 [2] of over 1000 nM. For the same molecule, the EC50 [3] was over 1000 nM, the EC50 [4] was 1 to 10 nM and the Emax ([4]; CHO) was 98%.

`CC[C@H](C)[C@H](NC(=O)[C@H](CC(C)C)NC(=O)[C@H](Cc1c[nH]c2ccccc12)NC(=O)[C@H](CCC(N)=O)NC(=O)[C@@H](NC(=O)[C@H](Cc1ccccc1)NC(=O)[C@H](C)NC(=O)[C@H](CCCCNC(=O)COCCOCCNC(=O)COCCOCCNC(=O)CC[C@H](NC(=O)CCCCCCCCCCCCCCCCCCC(=O)O)C(=O)O)NC(=O)[C@H](CCC(N)=O)NC(=O)[C@H](C)NC(=O)[C@@H](NC(=O)[C@H](CCCCN)NC(=O)[C@H](CC(=O)O)NC(=O)[C@H](CC(C)C)NC(=O)C(C)(C)NC(=O)[C@@H](NC(=O)[C@H](CO)NC(=O)[C@H](Cc1ccc(O)cc1)NC(=O)[C@H](CC(=O)O)NC(=O)[C@H](CO)NC(=O)[C@@H](NC(=O)[C@H](Cc1ccccc1)NC(=O)[C@@H](NC(=O)CNC(=O)[C@H](CCC(=O)O)NC(=O)CCN(C)C(=O)C(C)(C)c1cc(F)cc(C#N)c1)[C@@H](C)O)[C@@H](C)O)[C@@H](C)CC)[C@@H](C)CC)C(C)C)C(=O)N[C@@H](C)C(=O)NCC(=O)NCC(=O)N1CCC[C@H]1C(=O)N[C@@H](CO)C(=O)N[C@@H](CO)C(=O)NCC(=O)N[C@@H](C)C(=O)N1CCC[C@H]1C(=O)N1CCC[C@H]1C(=O)N1CCC[C@H]1C(=O)N[C@@H](CO)C(N)=O` [Compound 201] ({Isobutyryl(2-(3-CN-5-F-Ph))}-[NMeβAla]EGTFTSDYSI[Aib]LDKIAQK([AEEA-AEEA-γGlu-C20 diacid])AFVQWLIAGGPSSGAPPPS-NH2) was tested, and the EC50 [1, 5] was 100 to 1000 nM, the Emax [1, 6] was 107% and the EC50 [2, 7] was over 1000 nM. For the same molecule, the EC50 [3, 8] was over 1000 nM, the EC50 [4, 9] was 10 to 100 nM and the Emax [4, 10] was 108%.
